Where a name gives a salt, the structure may show the parent alone.
Columns and labels:
[1] = system: ICR mice; assay: Evaluation of side effects of constipation (defecation time, number, weight); format: in vivo; conditions: for Number of defecating animals: 10 mice per group; for Number of defecating animals / Fecal weight: within 5 hours; for Defecation time: first black stool; for Defecation time / water content of feces / Fecal weight: x ± SE; for Defecation time / water content of feces: only animals that defecate within 5 hours
Procedure: Constipation side effect is a common side effect of opioid drugs. This patent evaluates the possibility of constipation side effect by the influence of the compound on defecation time, defecation quantity and defecation weight of experimental animals.
ICR mice are randomly divided into 6 groups with 10 mice in each group after adaptive feeding. Fasting for 16-24 h, without stopping drinking, the blank control group is given solvent, during which the normal diet is: (1) the blank control group; (2) Compound diphenoxylate (7.5 mg/kg) group; (3) Low dose (1 mg/kg) group; (4) High dose (5 mg/kg) group of the compound to be tested.
After administration for 30 minutes, the mice in each group are given Chinese ink by gavage. After administration, the mice are kept in a single cage, and the excretion time of the first black stool is recorded. The number and weight (wet weight) of defecation particles in each mouse within 5 hours after administration are recorded. each group of mice are placed in an IVC cage with clean filter paper. The feces of each mouse are collected, put into a sterile 1.5 ml EP tube and stored in an ice box. During the collection, the number of defecation particles of each mouse is recorded, and the wet weight is weighed. After the collected feces are dried, the dry weight of the feces is recorded. Drying conditions: put fresh feces in an oven and bake at 100° C. for 5-10 minutes until the dry weight of feces is constant. The following formula is used to calculate the water content of feces, and the water content of feces (%)=(wet feces mass−dry feces mass)/wet feces mass×100%.
The data required for measurement and observation in this experiment are recorded in the corresponding table. All data are statistically processed by Microsoft Excel, and expressed as “mean standard error”. The data of each group are statistically analyzed by SPSS software package.

[2] = target: CYP 2C9 (Homo sapiens, UniProt P11712); assay: Inhibition of cytochrome P450 enzyme in human liver microsomes, CYP 2C9
[3] = target: T1, κOR (Homo sapiens, UniProt P41145); assay: Opioid receptor competitive binding test, κOR; conditions: compound at 10 μM; [3H]-labeled ligand; CHO cell membranes; ± SD of three measurements
T1 construct: expressed in transfected cells; host or cells: CHO cells
Procedure: (§1) CHO cells expressing p opioid receptor, δ opioid receptor and K opioid receptor are cultured in a 10 cm^2 Petri dish (F-12 medium+10% newborn bovine serum) for several days, and the culture solution is sucked after the cells grew to the bottom of the dish. 3 ml PBS/EDTA solution (0.1M NaCl, 0.01M NaH2PO4, 0.04% EDTA) is added for digestion for 3-5 minutes. The cells are blown with a straw to get fall off completely, collected in a 40 ml centrifuge tube, centrifuged at 5000 rpm for 5 minutes, and removed with the supernatant. The centrifuge tube is added with ice-cold homogenate (50 mM HEPES PH 7.4, 3 mM MgCl2, 1 mM EGTA). The solution and precipitate are transferred to homogenizer for homogenization; Then the homogenate is transferred into a centrifuge tube, centrifuged at 18000 rpm for 15 minutes, and centrifuged twice; the obtained precipitate is added with an appropriate amount of buffer solution of 50 mM Tris-HCl and pH 7.4, homogenized and sub-packaged in centrifuge tubes. The product is stored in a refrigerator at −70° C. for later use.
(§2) 20-30 μg expressed membrane receptor protein and [3H]-labeled ligand (1-2 nM) are added to the total binding tube, added with 1 μM of corresponding ligand to the corresponding nonspecific binding tube. Various screened opioid ligand drugs (see the drug compounds in Table 1 below) are added to the sample tube with 100 μL final volume. The sample is incubated at 30° C. for 30 minutes, and the reaction is terminated in ice water. The glass fiber filter paper gF/C (whatman) is used for negative pressure filtration on Millipore sample collector. The sample is eluted with 4 ml 50 mm tris-HCl (pH 7.4) for three times, dried with the filter paper, put in 0.5 ml Eppendorf tube and added with 0.5 ml lipophilic scintillation liquid. The radioactive intensity is measured with PERKIN ELMER PRI-CARB 2910 liquid scintillation counter with calculation of the inhibition rate. The experiment is repeated for more than three times, with three compound tubes in each group. Inhibition rate(or binding rate)=(total binding rate dpm−sample tube dpm)/(total binding tube dpm-nonspecific binding tube dpm)×100%
(§3) IC50 is calculated with Prism 5.0 software. The Ki value is calculated according to the following formula: Ki=IC50/(1^+[L]/Kd), wherein [L] is the concentration of the added labeled ligand, and Kd is the equilibrium dissociation parameter of the labeled ligand.

[4] = Metabolic stability in liver microsomes, rat; conditions: for half-life at 2 μM / microsomal CLint at 2 μM: rat, microsomes, pH 7.4
Procedure: (§4) The solution B is slowly dropped into solution A, and the pH is adjusted to 7.40±0.05.
(§5) • Control drug: 4 μL Verapamil solution (10 mM) is added with 96 μL DMSO and diluted to 400 μM; • Compound to be tested: 4 μL compound to be tested (10 mM) is added with 96 μL normal saline and diluted to 400 μM.
(§6) The microsomes are stored in the refrigerator at −80° C., thawed at room temperature after being taken out, and mixed gently.
(§7) […] PBS (100 mm, pH=7.4) solution is added to the negative sample. The solution is put into water bath at 37° C. and pre-incubated for 10 minutes; • B) After incubation, 2 μL reference drug or compound to be tested (400 μM) are added into each well to start the reaction.

[5] = target: T2, δOR (Homo sapiens, UniProt P41143); assay: Opioid receptor competitive binding test, δOR; conditions: compound at 10 μM; [3H]-labeled ligand; CHO cell membranes; ± SD of three measurements
T2 construct: expressed in transfected cells; host or cells: CHO cells
Procedure: as §1, §2, §3

[6] = Metabolic stability in liver microsomes, mouse; conditions: for half-life at 2 μM / microsomal CLint at 2 μM: mouse, microsomes, pH 7.4
Procedure: as §4, §5, §6, §7

[7] = target: CYP 3A4 (Homo sapiens, UniProt P08684); assay: biochemical; conditions: CYP 3A4 IC50, human liver microsomes
[8] = Metabolic stability in liver microsomes, human; conditions: for half-life at 2 μM / microsomal CLint at 2 μM: human, microsomes, pH 7.4
Procedure: as §4, §5, §6, §7

[9] = Rat liver microsomes 0.5 mg/mL, NADPH 1 mM, compound 2 μM
[10] = Mouse liver microsomes 0.5 mg/mL, NADPH 1 mM, compound 2 μM
[11] = Human liver microsomes 0.5 mg/mL, NADPH 1 mM, compound 2 μM

Structure (SMILES) | Number of defecating animals ([1]; 1 mg/kg) | Defecation time ([1]; 1 mg/kg) [min] | water content of feces ([1]; 1 mg/kg) [%] | Fecal weight ([1]; 1 mg/kg) [g] | Number of defecating animals ([1]; 5 mg/kg) | Defecation time ([1]; 5 mg/kg) [min] | water content of feces ([1]; 5 mg/kg) [%] | Fecal weight ([1]; 5 mg/kg) [g] | IC50 [2] [µM] | κOR binding rate [3] [%] | half-life at 2 μM [4] [min] | microsomal CLint at 2 μM [4] [µL/min/mg] | δOR binding rate [5] [%] | half-life at 2 μM [6] [min] | microsomal CLint at 2 μM [6] [µL/min/mg] | IC50 ([7]; substrate midazolam) [µM] | IC50 ([7]; substrate testosterone) [µM] | half-life at 2 μM [8] [min] | microsomal CLint at 2 μM [8] [µL/min/mg] | other results
[2H]C([2H])([2H])Oc1cccc([C@]2(O)CCN(S(=O)(=O)Cc3ccccc3)C[C@H]2CN(C([2H])([2H])[2H])C([2H])([2H])[2H])c1 [II-5hydrochloride] | 8 | 160.1 ± 9.9 | 42.7 ± 1.9 | 0.3389 ± 0.0902 | 2 | 202.8 ± 4.2 | 37.6 ± 8.6 | 0.0478 ± 0.0061 | > 50 | 15.8 ± 4.6 | 6.59 | 763 | 12.9 ± 1.8 | 6.05 | 706 | > 50 | > 50 | 6.25 | 704 | –
[2H]C([2H])([2H])N(C)C[C@@H]1CN(C(=O)Cc2cc(F)c(F)cc2F)CC[C@@]1(O)c1cccc(OC)c1 [II-7hydrochloride, 1-((3R,4S)-4-hydroxy-4-(3-methoxyphenyl)-3-(((methyl-d3)amino)methyl)-1-piperidinyl)-2(2,4,5-trifluorophenyl)ethyl-1-one] | 9 | 109.0 ± 8.8 | 44.8 ± 3.2 | 0.3846 ± 0.0798 | 3 | 200.6 ± 7.9 | 38.6 ± 7.9 | 0.0612 ± 0.0079 | > 50 | 16.6 ± 2.9 | 5.68 | 689 | 10.6 ± 2.0 | 5.15 | 661 | 49.7 | 47.5 | 5.42 | 681 | –
[2H]C([2H])([2H])N(C)C[C@@H]1CN(S(=O)(=O)Cc2ccccc2)CC[C@@]1(O)c1cccc(OC)c1 [II-1hydrochloride] | 9 | 105.9 ± 10.5 | 43.5 ± 2.6 | 0.3682 ± 0.0816 | 3 | 202.4 ± 6.2 | 38.2 ± 8.6 | 0.0586 ± 0.0065 | > 50 | 16.37 ± 1.6 | 5.63 | 701 | 11.6 ± 2.1 | 5.19 | 659 | 42.9 | 41.9 | 5.22 | 663 | –
[2H]C([2H])([2H])N(C[C@@H]1CN(S(=O)(=O)Cc2ccccc2)CC[C@@]1(O)c1cccc(OC)c1)C([2H])([2H])[2H] [II-3hydrochloride] | 8 | 152.8 ± 4.1 | 43.0 ± 2.1 | 0.3396 ± 0.0965 | 2 | 243.6 ± 10.5 | 37.8 ± 8.9 | 0.0482 ± 0.0053 | > 50 | 15.3 ± 2.0 | 5.72 | 697 | 12.3 ± 2.0 | 5.24 | 660 | 46.8 | 43.6 | 5.46 | 685 | –
COc1cccc([C@]2(O)CCN(S(=O)(=O)Cc3ccccc3)C[C@H]2CN(C)C)c1.Cl [Example 20 of CN201911076305.X, reference compound] | 9 | 281 ± 4 | 19.6 ± 4.5 | 0.1243 ± 0.0153 | – | – | 0 | 0 | – | 15.25 ± 1.56 | – | – | 10.5 ± 3.7 | – | – | – | – | – | – | Number of defecating animals ([1]; 5 mg/kg, hydrochloride): 0; Number of defecating animals ([1]; 5 mg/kg, listed as Example 20 in patent CN201911076305.X, hydrochloride): did not defecate; constipation in experimental animals ([1]; comparative experiments of the inventor): can cause constipation in experimental animals in a dose-dependent manner; CLint [4, 9]: 747.68 μL/min/mg protein; t1/2 [4, 9]: 1.85 min; CLint [6, 10]: 1101.92 μL/min/mg protein; t1/2 [6, 10]: 1.26 min; CLint [8, 11]: 950.42 μL/min/mg protein; t1/2 [8, 11]: 1.46 min

Reference: US12509421B2, “Preparation and application of deuterated 4-phenyl-4-piperidinols” (priority 2022, dated 2025)
